Source: US6911319B2, “Methods and kits for detecting protein kinases” (Lumitech (UK) Limited, priority 2000, dated 2005)

Assays:
Format in all cases: biochemical
raf-1 = experiment: Bioluminescent protein kinase assay, raf-1 activation of inactive MEK-1; conditions: two different concentrations of PD098059; inactive MEK-1 as substrate
MAPK-1/ERK-1 = biological target: T1, MAPK-1/ERK-1 (Homo sapiens, UniProt P27361); experiment: Bioluminescent protein kinase assay, MAPK-1 with MBP as substrate; conditions: 30° C. for 30 minutes, MBP 2.72 μM
T1 construct: purchased UBI (Upstate Biotechnology)
Method: We also investigated the effect of genistein (Calbiochem) on MAPK-1 activity with MBP as substrate.
The assay buffer used was the same as for the SAP kinases (see above). The assay was performed in 100 μl volumes in a 96 well microtitre plate at 30° C. for 30 minutes. MBP (Calbiochem) was used at the same concentration as previously described (2.72 μM), with the activated MAPK1/ERK1 (UBI) used at a final concentration of 2.5U per100 μl reaction volume. The inhibitor was added at concentrations of 0, 0.1, 0.25, 0.5 and 1.0 μM, with 10 μl being added per well in 0.1% (v/v) DMSO.
For completeness, control samples with and without DMSO (0+DMSO and 0−DMSO, respectively) were also analysed to confirm that there was no effect of DMSO on the performance of the assay.

[1] = biological target: luciferase-luciferin reaction (Photinus pyralis, UniProt P08659); experiment: Effect of inhibitor on the bioluminescent ATP detection system; conditions: even at the highest concentration of the inhibitor; 10 μM ATP, 100 μl volumes, 96 well plate
Method: We initially chose to look at a broad spectrum kinase inhibitor staurosporine (Calbiochem). Firstly, we tested the inhibitor (in DMSO) on the ATP detection reagent to ensure that the inhibitor would not affect the luciferase-luciferin reaction.
The results are presented as the means of triplicate wells±SD.
The experiment was performed using 10 μM ATP in 100 μl volumes in a 96 well plate with the addition of 20 μl of ATP detection reagent.

JNK2α2 = biological target: T2, JNK2α2 (Homo sapiens, UniProt P45984); experiment: Bioluminescent protein kinase assay, JNK2α2 with ATF-2 as substrate
T2 construct: purchased Upstate Discovery
Method: The lower concentration had little effect, however 5 μM caused approximately 50% inhibition after 30 minutes at 30° C.
The above assay was performed in 200 μl volumes in plastic tubes in, a 30° C. waterbath. At each time point 20 μl samples were removed from the tubes and added to wells of a 96 well plate, followed by the addition of 20 μl of ATP detection reagent. The final concentration of ATP used was 12.5 μM, with JNK2α2 at 1.25 μM and ATF-2 at 2.55 μM.

T2 sequence (P45984 whole entry): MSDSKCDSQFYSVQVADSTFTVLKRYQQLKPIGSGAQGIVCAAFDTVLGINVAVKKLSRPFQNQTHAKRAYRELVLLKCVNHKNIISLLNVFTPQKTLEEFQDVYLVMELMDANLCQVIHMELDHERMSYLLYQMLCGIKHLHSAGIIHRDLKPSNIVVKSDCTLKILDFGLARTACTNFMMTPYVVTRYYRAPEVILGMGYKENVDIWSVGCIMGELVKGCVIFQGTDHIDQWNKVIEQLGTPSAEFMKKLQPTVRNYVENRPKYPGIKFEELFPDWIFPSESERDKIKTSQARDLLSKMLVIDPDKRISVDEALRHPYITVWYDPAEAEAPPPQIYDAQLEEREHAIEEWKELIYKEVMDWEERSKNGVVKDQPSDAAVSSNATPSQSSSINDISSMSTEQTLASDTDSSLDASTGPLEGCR
T1 sequence (P27361 whole entry): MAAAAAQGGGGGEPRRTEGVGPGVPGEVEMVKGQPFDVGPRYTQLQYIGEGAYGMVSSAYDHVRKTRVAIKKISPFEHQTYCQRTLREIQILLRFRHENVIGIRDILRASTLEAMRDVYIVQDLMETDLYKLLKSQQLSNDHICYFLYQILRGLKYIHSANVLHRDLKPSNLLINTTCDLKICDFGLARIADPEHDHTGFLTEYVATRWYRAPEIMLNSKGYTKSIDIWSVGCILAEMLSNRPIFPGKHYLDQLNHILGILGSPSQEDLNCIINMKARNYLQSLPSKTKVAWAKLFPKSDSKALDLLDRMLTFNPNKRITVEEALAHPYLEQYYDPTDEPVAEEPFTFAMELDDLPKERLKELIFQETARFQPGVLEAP
Sequence of luciferase-luciferin reaction (P08659 whole entry): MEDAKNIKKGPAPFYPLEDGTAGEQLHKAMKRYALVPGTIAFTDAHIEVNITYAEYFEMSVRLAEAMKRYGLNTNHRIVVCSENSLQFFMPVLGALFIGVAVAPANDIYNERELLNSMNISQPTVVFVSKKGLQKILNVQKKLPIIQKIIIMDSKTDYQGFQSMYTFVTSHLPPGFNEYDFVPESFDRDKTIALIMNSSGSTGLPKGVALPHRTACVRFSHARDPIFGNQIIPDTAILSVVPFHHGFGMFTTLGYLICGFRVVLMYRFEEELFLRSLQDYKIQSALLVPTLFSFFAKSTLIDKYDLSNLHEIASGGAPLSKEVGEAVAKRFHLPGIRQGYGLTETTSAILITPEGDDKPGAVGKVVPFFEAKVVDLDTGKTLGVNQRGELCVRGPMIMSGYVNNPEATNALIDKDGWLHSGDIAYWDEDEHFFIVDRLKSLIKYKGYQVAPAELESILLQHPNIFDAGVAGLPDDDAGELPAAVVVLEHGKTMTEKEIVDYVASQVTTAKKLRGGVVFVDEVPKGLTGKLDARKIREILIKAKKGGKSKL

COc1cccc(-c2cc(=O)c3ccccc3o2)c1N [PD098059]
light output in the presence of the inhibitor (indicating reduced kinase activity) (raf-1): concentration dependent increase

O=c1c(-c2ccc(O)cc2)coc2cc(O)cc(O)c12 [genistein]
effect on MAPK-1 activity (MAPK-1/ERK-1; genistein 500 nM): an effect | effect on MAPK-1 activity (MAPK-1/ERK-1; genistein 1 μM): increased inhibitory activity

CN[C@@H]1C[C@H]2O[C@@](C)([C@@H]1OC)n1c3ccccc3c3c4c(c5c6ccccc6n2c5c31)C(=O)NC4 [staurosporine]
effect upon light output [1]: no significant effect | inhibition of JNK2α2 activity (JNK2α2; 5 μM staurosporine, after 30 minutes at 30° C., ATP 12.5 μM, JNK2α2 1.25 μM, ATF-2 2.55 μM): approximately 50% | effect on JNK2α2 activity (JNK2α2; the lower of two staurosporine concentrations, 30° C.): little effect
